Data published in US20230012368A1 (Hoffmann-La Roche Inc., priority 2018, published 2023).
Structures can show the parent of a compound that is named as a salt. Where two headings read alike, the source gives them in different places.

Tested on: Acinetobacter baumannii ATCC 17978
Test: Antimicrobial susceptibility testing: 90% growth inhibitory concentration (IC90) determination
Format: cell-based
Details: 90% growth inhibitory concentration, Acinetobacter baumannii ATCC17978, Iso-Sensitest broth, OD 600 nm over 16h, read-out: ATCC17978 IC90
Method in brief: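 Growth of the Acinetobacter baumannii strain was followed by optical density at 600 nm every 20 minutes for 16h at 35±2° C. Inoculum was ~5×10^(5) CFU/ml in Iso-Sensitest medium, with twofold compound dilutions (e.g. 50 to 0.097 μM final). The 90% inhibitory concentration was derived in log-phase growth.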

[1] = Acinetobacter baumannii, ATCC17978, 16 h

SMILES | IC90 [1] [nM] | further results
CCc1cc(Nc2nccn3c(-c4ccc(OC)c(F)c4F)cnc23)ccc1C(=O)NCCCCCCCN [Example 517, N-(7-aminoheptyl)-4-((3-(2,3-difluoro-4-methoxyphenyl)imidazo[1,2-a]pyrazin-8-yl)amino)-2-ethylbenzamide hydrochloride] | – | IC90: 67 nM
CCc1cc(Nc2nccn3c(-c4ccc(OC)c(F)c4F)cnc23)ccc1C(=O)NCC1(F)CNC1 [Example 526, 4-((3-(2,3-difluoro-4-methoxyphenyl)imidazo[1,2-a]pyrazin-8-yl)amino)-2-ethyl-N-((3-fluoroazetidin-3-yl)methyl)benzamide hydrochloride] | 210 | –
CCc1cc(Nc2nccn3c(-c4ccc(OC)c(F)c4F)cnc23)ccc1C(=O)NCC(O)CNC(=O)CN (stereo not drawn) [Example 374, N-[3-[(2-aminoacetyl)amino]-2-hydroxypropyl]-4-[[3-(2,3-difluoro-4-methoxyphenyl)imidazo[1,2-a]pyrazin-8-yl]amino]-2-ethylbenzamide] | 190 | –
CCc1cc(Nc2nccn3c(-c4ccc(OC(F)F)c(F)c4F)cnc23)ccc1C(=O)NC(CCN)C(F)F (stereo not drawn) [Example 315, N-(4-amino-1,1-difluorobutan-2-yl)-4-[[3-[4-(difluoromethoxy)-2,3-difluorophenyl]imidazo[1,2-a]pyrazin-8-yl]amino]-2-ethylbenzamide; hydrochloride] | – | IC90: 1300 nM
Cc1cc(Nc2nccn3c(-c4ccc(OC(F)F)c(F)c4)cnc23)ccc1C(=O)N(C)CCC1CCNCC1 [Example 89, 4-((3-(4-(difluoromethoxy)-3-fluorophenyl)imidazo [1,2-a]pyrazin-8-yl)amino)-N,2-dimethyl-N-(2-(piperidin-4-yl)ethyl)benzamide hydrochloride] | – | IC90: 230 nM
CCc1cc(Nc2nccn3c(-c4ccc(OCC#N)c(F)c4F)cnc23)ccc1C(=O)NCCCN [Example 299, N-(3-aminopropyl)-4-[[3-[4-(cyanomethoxy)-2,3-difluorophenyl]imidazo[1,2-a]pyrazin-8-yl]amino]-2-ethylbenzamide;2,2,2-trifluoroacetic acid] | 180 | –
CCc1cc(Nc2nccn3c(-c4ccc(Cl)c(F)c4F)cnc23)ccc1C(=O)N(C)CCCN [Example 282, N-(3-aminopropyl)-4-[[3-(4-chloro-2,3-difluorophenyl)imidazo[1,2-a]pyrazin-8-yl]amino]-2-ethyl-N-methylbenzamide; hydrochloride] | – | IC90: 1400 nM
COc1ccc(-c2cnc3c(Nc4ccc(C(=O)N[C@H](C)CNC(C)=N)c(C)c4)nccn23)c(F)c1F [Example 486, 4-[[3-(2,3-difluoro-4-methoxyphenyl)imidazo[1,2-a]pyrazin-8-yl]amino]-#N!- [(2#R!)-1-(ethanimidoylamino)propan-2-yl]-2-methylbenzamide;formic acid] | 68 | –
CCc1cc(Nc2nccn3c(-c4ccc(OC)c(F)c4F)cnc23)ccc1C(=O)NCCNC(=O)[C@@H](N)CCCNC(=N)NCCCC(=O)O [Example 157, (S)-7-amino-1-(4-((3-(2,3-difluoro-4-methoxyphenyl)imidazo[1,2-a]pyrazin-8-yl)amino)-2-ethylphenyl)-12-imino-1,6-dioxo-2,5,11,13-tetraazaheptadecan-17-oic acid trihydrochloride] | – | IC90: 320 nM
CNC(=O)c1ccc(Nc2nccn3c(-c4ccc(OC(F)F)cc4)cnc23)cc1CCO [Example 190, 4-[[3-[4-(difluoromethoxy)phenyl]im-idazo[1,2-a]pyrazin-8-yl]amino]-2-(2-hydroxyethyl)-N-methylbenzamide] | 330 | –
Cc1cc(Nc2nccn3c(-c4ccc(OCC#N)c(F)c4F)cnc23)ccc1C(=O)NCCNC(=O)[C@@H]1CCNC[C@@H]1O [Example 451, (3R,4R)-N-[2-[[4-[[3-[4-(cyanomethoxy)-2,3-difluoro-phenyl]imidazo[1,2-a]pyrazin-8-yl]amino]-2-methyl-benzoyl]amino]ethyl]-3-hydroxy-piperidine-4-carboxamide; formic acid] | – | IC90: 760 nM
CCc1cc(Nc2nccn3c(-c4ccc(Oc5ccccn5)c(F)c4F)cnc23)ccc1C(=O)NCCNC(=O)CCN [Example 421, N-[2-(3-aminopropanoylamino)ethyl]-4-[[3-[2,3-difluoro-4-(2-pyridyloxy)phenyl]imidazo [1,2-a]pyrazin-8-yl]amino]-2-ethyl-benzamide; formic acid] | 440 | –
CCc1cc(Nc2nccn3c(-c4ccc(OC)c(F)c4F)cnc23)ccc1C(=O)NCC(O)CN (stereo not drawn) [Example 147, N-(3-amino-2-hydroxy-propyl)-4-[[3-(2,3-difluoro-4-methoxy-phenyl)imidazo[1,2-a]pyrazin-8-yl]amino]-2-ethyl-benzamide;hydrochloride] | – | IC90 (hydrochloride): 450 nM
CCc1cc(Nc2nccn3c(-c4ccc(OC)c(F)c4F)cnc23)ccc1C(=O)N[C@@H](CN)C(=O)OC [Example 308, methyl (2S)-3-amino-2-[[4-[[3-(2,3-difluoro-4-methoxyphenyl)imidazo[1,2-a]pyrazin-8-yl]amino]-2-ethylbenzoyl]amino]propanoate; hydrochloride] | – | IC90: 660 nM
Cc1cc(Nc2nccn3c(-c4ccc(OC(F)F)cc4)cnc23)ccc1C(=O)N(C)CCCCN1CCOCC1 [Example 208, 4-[[3-[4-(difluoromethoxy)phenyl]im-idazo[1,2-a]pyrazin-8-yl]amino]-N,2-dimethyl-N-(4-morpholin-4-ylbutyl)benzamide] | 580 | –

Now from value to compound, other results behind:

IC90 [1] [nM] | SMILES | further results
410 | CCc1cc(Nc2nccn3c(-c4ccc(OC(F)F)c(F)c4F)cnc23)ccc1C(=O)NCCCO[C@@H]1O[C@H](CO)[C@@H](O)[C@H](O)[C@H]1O [Example 442, 4-((3-(4-(difluoromethoxy)-2,3-difluorophenyl)imidazo[1,2-a]pyrazin-8-yl)amino)-2-ethyl-N-(3-(((2R,3R,4S,5S,6R)-3,4,5-trihydroxy-6-(hydroxymethyl)tetrahydro-2H-pyran-2-l)oxy)propyl)benzamide] | –
520 | CCc1cc(Nc2nccn3c(-c4ccc(Oc5ccncn5)c(F)c4F)cnc23)ccc1C(=O)NCCNC(=O)[C@@H](N)CCNC(=N)N [Example 440, N-[2-[[(2S)-2-amino-4-guanidino-butanoyl]amino]ethyl]-4-[[3-(2,3-difluoro-4-pyrimidin-4-yloxy-phenyl)imidazo[1,2-a]pyrazin-8-yl]amino]-2-ethyl-benzamide; formic acid] | –
360 | CCc1cc(Nc2nccn3c(-c4ccc(OC)c(F)c4F)cnc23)ccc1C(=O)N[C@H](C)CCN [Example 303, N-[(2R)-4-aminobutan-2-yl]-4-[[3-(2,3-difluoro-4-methoxyphenyl)imidazo[1,2-a]pyrazin-8-yl]amino]-2-ethylbenzamide;hydrochloride] | –
290 | COc1ccc(-c2cnc3c(Nc4ccc5c(c4)CCN(CCCN)C5=O)nccn23)c(F)c1F [Example 164, 2-(3-aminopropyl)-6-[[3-(2,3-difluoro-4-methoxy-phenyl)imidazo[1,2-a]pyrazin-s-yl]amino]-3,4-dihydroisoquinolin-1-one] | –
1300 | COc1ccc(-c2cnc3c(Nc4ccc(C(=O)NCCNC(=O)N5CCN[C@@H](C(=O)O)C5)c(C)c4)nccn23)c(F)c1F [Example 352, (2R)-4-[2-[[4-[[3-(2,3-difluoro-4-methoxyphenyl)imidazo[1,2-a]pyrazin-8-yl]amino]-2-methylbenzoyl]amino]ethyl-carbamoyl]piperazine-2-carboxylic acid;formic acid] | –
150 | CCc1cc(Nc2nccn3c(-c4ccc(OC)c(F)c4F)cnc23)ccc1C(=O)NCCNC(=O)[C@@H](N)CO [Example 373, N-[2-[[(2S)-2-amino-3-hydroxypropanoyl]amino]eth-yl]-4-[[3-(2,3-difluoro-4-methoxyphenyl)imidazo[1,2-a]pyrazin-8-yl]amino]-2-ethylbenzamide] | –
90 | CCc1cc(Nc2nccn3c(-c4ccc(OCC#N)c(F)c4F)cnc23)ccc1C(=O)NCCNC(=O)[C@@H](N)CCN [Example 144, 4-[[3-[4-(cyanomethoxy)-2,3-difluoro-phenyl]imidazo[1,2-a]pyrazin-8-yl]amino]-N-[2-[[(2S)-2,4-diaminobutanoyl]amino]ethyl]-2-ethyl-benzamide formate] | –
190 | CCc1cc(Nc2nccn3c(-c4ccc(OC(F)F)cc4)cnc23)ccc1C(=O)NC [Example 183, 4-[[3-[4-(difluoromethoxy)phenyl]im-idazo[1,2-a]pyrazin-8-yl]amino]-2-ethyl-N-methylbenzamide] | –
360 | COc1ccc(-c2cnc3c(Nc4ccc(C(=O)NCCCCN)c(C)c4)nccn23)cc1 [Example 194, N-(4-aminobutyl)-4-[[3-(4-methoxyphenyl)imidazo[1,2-a]pyrazin-8-yl]amino]-2-methylbenzamide;hydrochlo-ride] | –
960 | COc1ccc(-c2cnc3c(Nc4ccc(C(=O)NCCCN)c(C)c4)nccn23)cc1 [Example 51, N-(3-aminopropyl)-4-((3-(4-methoxyphenyl)imidazo [1,2-a]pyrazin-8-yl)amino)-2-methylbenzamide hydrochloride] | –
110 | CCc1cc(Nc2nccn3c(-c4ccc(OCC#N)c(F)c4Cl)cnc23)ccc1C(=O)NCCNC(=O)[C@@H](N)CCCNC(=N)N [Example 330, N-[2-[[(2S)-2-amino-5-carbamimidamidopentanoyl]amino]ethyl]-4-[[3-[2-chloro-4-(cyanomethoxy)-3-fluorophenyl]imidazo[1,2-a]pyrazin-8-yl]amino]-2-ethylbenzamide;formic acid] | –
110 | CCc1cc(Nc2nccn3c(-c4ccc(OC)c(F)c4F)cnc23)ccc1C(=O)NC[C@@H]1CCNC1 [Example 529, (R)-4-((3-(2,3-difluoro-4-methoxyphenyl)imidazo[1,2-a]pyrazin-8-yl)amino)-2-ethyl-N-(pyrrolidin-3-ylmethyl)benzamide hydrochloride] | –
